Earlier results on one compound are cited in patent US20090214648A1 (priority 2008, published 2009).

Series [1] concerns enzyme cyclooxygenase.
For series [2] the following is noted: in vivo.

Turning to `CC(C)Cc1ccc(C(C)C(=O)O)cc1` (stereo not shown) [Ibuprofen, 2-[4-(2-methylpropyl)phenyl]propanoic acid], in series [1], the Inhibition of cyclooxygenase entry is “potent inhibitor”. Also, in series [2], the “Dose excreted in the urine” value is on record as “more than 90%”, the Dose excreted unchanged entry is recorded as “Less than 10%” and the “Time until excretion is essentially complete” value was no more than 24 h.
